Measured values reported in BigSolDB 2.1.

[1] = in 2,2,4-trimethylpentane, 298.2 K
[2] = in 2,2,4-trimethylpentane, 308.2 K
[3] = in 2,2,4-trimethylpentane, 318.2 K

Row | solubility (mole fraction) [1] | solubility (mole fraction) [2] | solubility (mole fraction) [3] | solubility (mole fraction) (in ethanol, 298.2 K) | solubility (mole fraction) (in ethanol, 308.2 K) | solubility (mole fraction) (in ethanol, 318.2 K) | SMILES
1 | 0.00119 | 0.00152 | 0.00177 | 0.000505 | 0.000665 | 0.00078 | c1ccc2cc3ccccc3cc2c1
2 | 0.0246 | 0.0378 | 0.0484 | 0.0119 | 0.0159 | 0.019 | c1ccc2c(c1)ccc1ccccc12
